Results reported in US5681739A.

Legend:
[1] = pH, Eh and total chromium of soil cultures after growth; assay type: physicochemical; settings: cell-free supernatants, after 32 hours of growth
Protocol: Immediately after collection in sterile containers, the soil samples were stored at 4° C. for 30 days before use. Soil dilutions (10^-1 g/mL) were made in sterile isotonic phosphate buffer. One mL of each soil dilution was inoculated into 165 mL sealed serum vials containing 50 mL of TSB with N2 in the headspace. The serum vials and their contents were sterilized prior to inoculation.
Cr(VI) was added to the culture broth as K2 CrO4 to a final concentration of about 20 mg/L of Cr(VI). Cultures were incubated, at 30° C. on a gyratory shaker at 100 rpm, in an inverted position to limit gas leakage. Samples were analyzed periodically for Cr(VI) concentration and cell density.
After 32 hours of growth, pH, Eh, and total chromium levels of the cultures of Example 6 were determined. The initial pH of TSB was 7.04. Eh was measured with a platinum electrode (Microelectrodes, Inc., Londonderry, N.H.) using an ACCUMET 50 digital pH meter (Fisher Scientific, Pittsburgh, Pa.). Total chromium was analyzed with inductively coupled plasma emission spectroscopy (Model 3410, ARL) of clarified cultures.

soil cultures = assay type: cell-based; settings: soil cultures of Example 6 after 32 hours of growth

[Cr+3] [Cr(III)]
Cr(III) precipitation out of solution [1]: no evidence of Cr(III) precipitating out of solution
bacterial growth inhibition related to Cr(III) (soil cultures): no evidence of Cr(III) precipitating out of solution or bacterial growth inhibition related to Cr(III)
